# Results from patent EP1278521B1, “N-HETEROCYCLIC SUBSTITUTED SALICYLATES FOR THE TREATMENT OF CANCER” (priority 2000, dated 2001).
# “Also recorded” adds a separate entry of the source. Like-named read-outs stand apart in the source and are kept apart here.
# Experiments:
# [1] = cited from earlier work
# [2] = tested on: Nb2-SFJCD1 rat lymphoma cells; test: Culture growth inhibition assay in Nb2-SFJCD1 cultures; assay type: cell-based; conditions: for IC50: read-out: IC50 (mM) Average ± S.D.; for growth-inhibitory effect in the presence of elevated cystine: cystine at ca. 3-fold elevated levels in the culture medium, Fig. 5
# Protocol: Solubilization of salicylhydroxamic acid and sulfasalazine involved use of 0.1 N NaOH and adjustment of the pH to 7.5-7.7 using 1 N HCl, which was added slowly to the solution swirled by a magnetic stirrer. […] All drugs were obtained from Sigma-Aldrich Canada Ltd., Oakville, ON, Canada. Drug solutions and vehicles (controls) were prepared and assayed under subdued light conditions.
# (§1) Nb2 lymphoma is of a pre-T cell origin. The parental line (Nb2 U17) is non-metastatic as subcutaneous implants whereas subline Nb2-SFJCD1 is highly metastatic. Nb2-SFJCD1 cultures (doubling time = 12 - 13 hr) were maintained in Fischer's medium (Sigma-Aldrich), supplemented with 10.0 % horse gelding serum (lactogen-deficient; one batch, ICN Biomedicals, Inc., Auroro, OH), penicillin (50 U/ml) and streptomycin (50 µg/ml). In this medium the cells grow as clumps which can be readily dispersed. Nb2 lymphoma cell lines are used by a number of laboratories; the Nb2-11 subline, is available from the European Collection of Animal Cell Cultures (ECACC) in Salisbury, U.K. The Nb2-U17 and Nb2-SJFCD1 cell lines are available from Dr. Peter W. Gout, B.C. Cancer Research Centre, Vancouver, B.C., Canada.
# Nb2-SFTCD1 cells from log phase cultures were centrifaged (3.5 min at 350xg) and gently resuspended in fresh Fisher's medium containing 10% horse gelding serum. Aliquots (1.80 ml) were distributed in 12-well tissue culture plates (Linbro, Flow Laboratories, Mississauga, ON, Canada) and preincubated for 3 - 5 hours at 37°C in a water-saturated 5% CO2/air atmosphere. Solutions of the drugs (200 µl portions) were then added to the cultures for a 45 hour incubation (Cin = 1.0x10^5 cells/ml). Cell populations were determined using an electronic counter (Coulter Electronics, Hialeah, FL).
# [3] = tested on: MCF-7 cells; test: Cell proliferation of MCF-7 breast carcinoma cells; assay type: cell-based, human; conditions: 10 mM
# Excerpt: (§2) The effect of sulfasalazine on cell proliferation was subsequently assessed. […] Thus, the xc^- transporter is a target for the anti-cancer actions of sulfasalazine in human breast carcinoma.
# [4] = tested on: Nb2-U17 tumor transplant; test: Assay of tumor growth inhibition in rats; assay type: in vivo, Nb rats; conditions: b.i.d., 7-day period
# Protocol: (§3) A colony of Nb rats is maintained in the British Columbia Cancer Research Centre Vancouver, B.C., Canada. Approximately equal portions of minced Nb2-U17 tumor tissue, developed subcutaneously in a rat following injection of cultured Nb2-U17 cells, were injected by trocar subcutaneously in the nape of the neck of groups of male Nb rats (one injection per rat), that had been lightly anesthetized with isoflurane (Abbott Laboratories Ltd., Montreal, Canada). […] 2 % CMC or saline were used for controls. Drug preparation and administration were carried out under subdued light conditions. Food and water were provided ad libitum. Tumor size, body weight and general health of the rats were monitored twice a day. Tumor size was measured using calipers and expressed in grams using the formula: π/6 x length x width x height in cm. […] On necropsy the animals were examined for evidence of metastatic spread with particular attention to tissues such as kidneys, liver and spleen, the target tissues of metastatic Nb2 lymphoma cells. Tissue sections were taken for histologic analysis. Non-tumor-bearing animals were used to establish maximally tolerated dosages.
# [5] = tested on: MDA-MB-231 cells; test: Cell proliferation of MDA-MB-231 breast carcinoma cells; assay type: cell-based, human
# Excerpt: as §2
# [6] = rat, in vivo
# Protocol: as §3
# [7] = tested on: DoHH2 cells; test: Culture growth inhibition assay using DoHH2 cells; assay type: cell-based, human; conditions: 1.5% FBS, 0.05 mM, at hr 45, Fig. 4
# Protocol: as §1, with “Canada. DoHH2 cell suspension cultures (doubling time ca. 20 hours) were maintained in RPMI-1640 medium (Stem Cell Technology, Vancouver, B.C., Canada) containing fetal bovine serum (5%), horse serum (5%) and antibiotics.” for “Canada.”
# Assays using DoHH2 cells were similarly performed, using their maintenance medium; Cin = ca. 1.5x10^5 cells/ml (see: Kluin-Nelemans, H.C. et al. (1991) Leukemia 5:221.)
# [8] = as reported in the literature for patients/controls undergoing treatment with the drugs
# [9] = Rattus norvegicus, 45 h at 37°C, Fischer's medium containing 10.0% horse gelding serum
smiles,measurement,setting,value
Nc1ccc(O)c(C(=O)O)c1 [5-aminosalicylic acid],Therapeutic drug levels in plasma,[1]; [8],ca. 0.01 mM
CC(C)Cc1ccc(C(C)C(=O)O)cc1 (stereo not drawn) [Ibuprofen],Therapeutic drug levels in plasma,[1]; in vivo,0.05 to 0.1 mM
same,inhibition at 100 µM,"[2]; Rattus norvegicus, 0.1 mM (therapeutic concentration), Fig. 1, read-out: inhibited the growth of the Nb2 cell cultures",5 to 10%
same,IC50,[2]; [9],0.43 ± 0.01 mM
N[C@@H](CCC(=O)O)C(=O)[O-].[Na+] [Monosodium glutamate],inhibition of proliferation,[3],to an extent similar to that observed for sulfasalazine
same,inhibition of proliferation with addition of 2-ME,[3]; 2-ME added to the cultures,completely negated this effect
CN1C(C(=O)Nc2ccccn2)=C(O)c2ccccc2S1(=O)=O [Piroxicam],Therapeutic drug levels in plasma,[1]; in vivo,0.015 to 0.03 mM
same,inhibition at 30 µM,"[2]; Rattus norvegicus, 0.03 mM (therapeutic concentration), Fig. 1, read-out: inhibited the growth of the Nb2 cell cultures",5 to 10%
same,IC50,[2]; [9],0.3 ± 0.02 mM
NC(=O)c1ccccc1O [Salicylamide],IC50,[2]; [9],1.34 ± 0.13 mM
"O=C([O-])c1ccccc1O.[Na+] [Salicylate, sodium, sodium salicylate]",tumor growth inhibition,"[4]; i.p. 150 mg/kg body wt, 150 mg/kg",did not inhibit tumor growth; also recorded: had no effect
same,Therapeutic drug levels in plasma,[1]; [8],1 to 3 mM
same,IC50,"[2]; Rattus norvegicus, 45 h",1.82 ± 0.12 mM
same,inhibition at 3000 µM,"[2]; Rattus norvegicus, read-out: inhibited the growth of the Nb2 cell cultures",~70%
same,growth-inhibitory effect in the presence of elevated cystine,[2],only marginally affected
O=C(O)c1cc(/N=N/c2ccc(S(=O)(=O)Nc3ccccn3)cc2)ccc1O [Sulfasalazine],antagonism of the inhibitory actions by 2-ME,[5]; 2-ME (60µM),completely antagonized
same,IC50,"[5]; Homo sapiens, MDA-MB-231",300 ± 5 µM
same,lymphoma growth-inhibitory effect,"[4]; oral administration, 500 mg/kg body wt",only minor lymphoma growth-inhibitory effect
same,side effects (general health and appearance),[6],no major side effects
same,minor side effect,[6]; ip,thickening of tissue at the site of the injections
same,cell lysis,[7],extensive cell lysis
same,Therapeutic drug levels in plasma,[1]; [8],0.08 to 0.2 mM
same,growth arrest,"[2]; 0.15 mM, 45 hour experiment",only partially arrested growth
same,IC50,[2]; [9],~0.17 mM
same,growth-inhibitory effect in the presence of elevated cystine,[2],substantially reduced
same,growth-inhibitory activity,"[2]; range 0.1 - 0.3 mM, Fig. 2",highly potent
Nc1ccc(S(=O)(=O)Nc2ccccn2)cc1 [sulfapyridine],Therapeutic drug levels in plasma,[1]; [8],0.08 to 0.2 mM
